Experiment [1] addresses T1, Gonadotropin-releasing hormone receptor (Homo sapiens) (UniProt P30968).
T1 sequence (whole entry): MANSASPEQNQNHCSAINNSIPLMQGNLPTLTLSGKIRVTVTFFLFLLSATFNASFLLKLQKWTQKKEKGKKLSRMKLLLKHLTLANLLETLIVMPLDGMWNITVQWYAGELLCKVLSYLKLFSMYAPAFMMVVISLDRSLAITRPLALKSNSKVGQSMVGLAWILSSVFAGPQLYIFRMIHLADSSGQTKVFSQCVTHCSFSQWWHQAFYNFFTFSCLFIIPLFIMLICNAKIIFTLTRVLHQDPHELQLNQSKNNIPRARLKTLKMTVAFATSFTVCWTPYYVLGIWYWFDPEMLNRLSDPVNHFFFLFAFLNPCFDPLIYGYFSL
Kind of experiment: Inhibition of GnRH receptor at 10 uM.

The target of experiment [2] is T2, Gonadotropin-releasing hormone receptor (Homo sapiens, UniProt P30968).
T2 sequence (P30968 whole entry): T1 sequence (whole entry)
Kind of experiment: Inhibition of GnRH receptor.

The structures appear in SMILES notation.

The text below walks through data of ChEMBL document CHEMBL1144672, “The use of ligand-based de novo design for scaffold hopping and sidechain optimization: two case studies” (Bioorg Med Chem, 2008).

One may read the inhibition as the percentage by which the read-out fell short of the control. As for `O=c1c2c(n(Cc3c(F)cccc3F)c(=O)n1CCN1CCc3ccccc3C1)CCN(CC1CCCC1)C2`, the inhibition in experiment [1] stood at 16%. Usually Ki stands for the dissociation constant of the complex between target and ligand, obtained from inhibition or displacement. A lower Ki goes with higher affinity. In turn, `COc1cccc(-c2c(C)n(Cc3c(F)cccc3F)c(=O)n(CC(C)NCc3nccs3)c2=O)c1F` (stereo not drawn) had an inhibition constant Ki in experiment [2] of 6 nM. `CC(CCN1CCc2c(c(=O)n(CCN3CCCCC3)c(=O)n2Cc2c(F)cccc2F)C1)CC(C)(C)C` (stereo not drawn): in experiment [2], the Ki amounted to 4400 nM. In addition, in experiment [1], the inhibition came to 50%.

`Cc1cc(C)cc(-c2[nH]c3ccc(C(C)(C)C(=O)N4C5CCC4CC5)cc3c2C(C)CNCCCCc2ccnnc2)c1` (stereo not drawn): the Ki in experiment [2] stood at 0.7 nM. This counts as sub-nanomolar.

In turn, `Cc1ccc(CN2CCc3c(c(=O)n(CC4NCCc5ccccc54)c(=O)n3Cc3c(F)cccc3F)C2)c(C)c1` (stereo not drawn) gave an inhibition constant (Ki) in experiment [2] of 110 nM. The molecule also returned an inhibition in experiment [1] of 95%. In turn, `CC(C)CN(C)CCn1c(=O)c2c(n(CCOc3ccccc3)c1=O)CCN(CCCC(F)(F)F)C2` yielded an inhibition in experiment [1] of 0%. Turning to `CC(C)CN(C)CCn1c(=O)c2c(n(Cc3c(F)cccc3F)c1=O)CCN(Cc1ccc(OC(F)(F)F)cc1)C2`, the affinity in experiment [2] corresponds to a Ki of 2500 nM. In experiment [1], the inhibition was determined as 73%.

`CCOC(=O)c1cn(Cc2c(F)cccc2F)c2cc(-c3ccc(NC(=O)CC)cc3)c(CN(C)Cc3ccccc3)cc2c1=O` returned an inhibition constant (Ki) in experiment [2] of 50 nM.

For the molecule `NC(CC1CCCCC1)Cn1c(=O)c2c(n(Cc3c(F)cccc3F)c1=O)CCN(Cc1ccc(Cl)cc1)C2` (stereo not drawn), the Ki in experiment [2] came to 3200 nM. The inhibition in experiment [1] was determined as 66%. Taken in the same sequence, the figures for `CNC(Cn1c(=O)c2c(n(Cc3c(F)cccc3F)c1=O)CCN(Cc1ccc(C)cc1C)C2)c1ccccc1` (stereo not drawn) were 50 nM and 100%.

The molecule `COc1ccc(CN2CC3CC(c4ccc(N(C)C)c5ccccc45)N4C(=O)N(CCN5CCOCC5)C(=O)C34C2)cc1NC(C)=O` (stereo not drawn) registered an inhibitory constant (Ki) in experiment [2] of 21 nM. `Cc1ccc(CN2CCc3c(c(=O)n(CC4CCNCC4)c(=O)n3Cc3c(F)cccc3F)C2)c(C)c1` gave a Ki in experiment [2] of 1900 nM. The same molecule showed an inhibition in experiment [1] of 72%.
